Experimental data published in patent publication US12146004B2, “Polymyxin compounds and uses thereof” (priority 2014, dated 2024).
Values after ≈ are worked out from the molar mass of the structure shown. Bridge positions count the residues as written; N and C are the ends. Square brackets hold non-standard residues; d marks the D form. Peptide text beside a SMILES is read from it. * marks the point of attachment. X10 = NC[C@H](OCc1ccc(Cl)cc1)C(=O)*; X29 = Cc1ccc(CO[C@@H](CN)C(=O)*)cc1; X27 = NCCC(C(=O)*)c1cccc(Cl)c1; dCha = N[C@H](CC1CCCCC1)C(=O)O; X28 = NCCC(C(=O)*)c1ccccc1Cl; Dab = NCC[C@H](N)C(=O)O; Dap = NC[C@H](N)C(=O)O

What was measured:
Format in all cases: cell-based
Pseudomonas aeruginosa = tested on: Pseudomonas aeruginosa
Summary of the method: (§1)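 In vitro susceptibility was determined across up to nine strains of each pathogen, some resistant. Potency is given as MIC, μg/mL.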

Klebsiella pneumoniae = tested on: Klebsiella pneumoniae
Summary of the method: as §1

Acinetobacter baumannii = tested on: Acinetobacter baumannii
Summary of the method: as §1

Escherichia coli = tested on: Escherichia coli
Summary of the method: as §1

With `CC(C)C[C@@H]1NC(=O)[C@@H](CC2CCCCC2)NC(=O)[C@H](CCN)NC(=O)[C@@H](NC(=O)[C@H](CN)NC(=O)[C@@H](NC(=O)C(CCN)c2ccccc2Cl)[C@@H](C)O)CCNC(=O)[C@H]([C@@H](C)O)NC(=O)[C@H](CCN)NC(=O)[C@H](CCN)NC1=O` (stereo partly drawn) [Example 76, 4-amino-2-(2-chlorophenyl) butanoyl L-Thr-L-Dap-polymyxin [D-cyclohexylalanine]-6 heptapeptide.] (X28-T[Dap][Dab][Dab][dCha]L[Dab][Dab]T; lactam 3-C) the “MIC P. aeruginosa ATCC 27853” value (Pseudomonas aeruginosa) was 0.5 µg/mL (≈ 0.434 µM), the “MIC P. aeruginosa CCUG 59347” value (Pseudomonas aeruginosa) was 0.5 µg/mL (≈ 0.434 µM) and the “MIC K. pneumoniae ATCC 13882” value (Klebsiella pneumoniae) was 0.25 µg/mL (≈ 0.217 µM). The “MIC A. baumanii ATCC BAA-747” value (Acinetobacter baumannii) was 0.5 µg/mL (≈ 0.434 µM), the “MIC A. baumanii NCTC 13424” value (Acinetobacter baumannii) was 0.5 µg/mL (≈ 0.434 µM) and the “MIC E. coli 058” value (Escherichia coli) was 8 µg/mL (≈ 6.95 µM). The “MIC E. coli ATCC 25922” value (Escherichia coli) was 0.125 µg/mL (≈ 0.109 µM).
In the case of `CC(C)C[C@@H]1NC(=O)[C@@H](CC2CCCCC2)NC(=O)[C@H](CCN)NC(=O)[C@@H](NC(=O)[C@H](CCN)NC(=O)[C@@H](NC(=O)C(CCN)c2ccccc2Cl)[C@@H](C)O)CCNC(=O)[C@H]([C@@H](C)O)NC(=O)[C@H](CCN)NC(=O)[C@H](CCN)NC1=O` (stereo partly drawn) [Example 77, 4-amino-2-(2-chlorophenyl) butanoyl polymyxin [D-cyclohexylalanine]-6 nonapeptide] (X28-T[Dab][Dab][Dab][dCha]L[Dab][Dab]T; lactam 3-C), the “MIC P. aeruginosa ATCC 27853” value (Pseudomonas aeruginosa) is reported as 0.5 µg/mL (≈ 0.429 µM), the “MIC P. aeruginosa CCUG 59347” value (Pseudomonas aeruginosa) is reported as 0.5 µg/mL (≈ 0.429 µM) and the “MIC K. pneumoniae 065” value (Klebsiella pneumoniae) is reported as 8 µg/mL (≈ 6.87 µM). The “MIC K. pneumoniae ATCC 13882” value (Klebsiella pneumoniae) was 0.5 µg/mL (≈ 0.429 µM), the “MIC A. baumanii ATCC BAA-747” value (Acinetobacter baumannii) was 1 µg/mL (≈ 0.858 µM) and the “MIC A. baumanii NCTC 13424” value (Acinetobacter baumannii) was 0.5 µg/mL (≈ 0.429 µM). For the same molecule, the “MIC E. coli 058” value (Escherichia coli) was 8 µg/mL (≈ 6.87 µM) and the “MIC E. coli ATCC 25922” value (Escherichia coli) was 0.25 µg/mL (≈ 0.215 µM).
`Cc1ccc(CO[C@@H](CN)C(=O)N[C@H](C(=O)N[C@@H](CN)C(=O)N[C@H]2CCNC(=O)[C@H]([C@@H](C)O)NC(=O)[C@H](CCN)NC(=O)[C@H](CCN)NC(=O)[C@H](CC(C)C)NC(=O)[C@@H](CC3CCCCC3)NC(=O)[C@H](CCN)NC2=O)[C@@H](C)O)cc1` [Example 78, (S)-3-amino-2-((4-methylbenzyl)oxy) propanoyl L-Thr-L-Dap-polymyxin [D-cyclohexylalanine]-6 heptapeptide] (X29-T[Dap][Dab][Dab][dCha]L[Dab][Dab]T; lactam 3-C) was tested, and the “MIC P. aeruginosa ATCC 27853” value (Pseudomonas aeruginosa) was 0.25 µg/mL (≈ 0.218 µM), the “MIC P. aeruginosa CCUG 59347” value (Pseudomonas aeruginosa) was 0.25 µg/mL (≈ 0.218 µM) and the “MIC K. pneumoniae ATCC 13882” value (Klebsiella pneumoniae) was 0.25 µg/mL (≈ 0.218 µM). For the same molecule, the “MIC A. baumanii ATCC BAA-747” value (Acinetobacter baumannii) was 0.25 µg/mL (≈ 0.218 µM), the “MIC A. baumanii NCTC 13424” value (Acinetobacter baumannii) was 0.06 µg/mL (≈ 0.0523 µM) and the “MIC E. coli 058” value (Escherichia coli) was 4 µg/mL (≈ 3.49 µM). For the same molecule, the “MIC E. coli ATCC 25922” value (Escherichia coli) was 0.25 µg/mL (≈ 0.218 µM).
With `CC(C)C[C@@H]1NC(=O)[C@@H](CC2CCCCC2)NC(=O)[C@H](CCN)NC(=O)[C@@H](NC(=O)[C@H](CN)NC(=O)[C@@H](NC(=O)C(CCN)c2cccc(Cl)c2)[C@@H](C)O)CCNC(=O)[C@H]([C@@H](C)O)NC(=O)[C@H](CCN)NC(=O)[C@H](CCN)NC1=O` (stereo partly drawn) [Example 79, 4-Amino-2-(3-chlorophenyl) butanoyl L-Thr-L-Dap-polymyxin [D-cyclohexylalanine]-6 heptapeptide.] (X27-T[Dap][Dab][Dab][dCha]L[Dab][Dab]T; lactam 3-C) the “MIC P. aeruginosa ATCC 27853” value (Pseudomonas aeruginosa) was 0.5 µg/mL (≈ 0.434 µM), the “MIC P. aeruginosa CCUG 59347” value (Pseudomonas aeruginosa) was 0.5 µg/mL (≈ 0.434 µM) and the “MIC K. pneumoniae 065” value (Klebsiella pneumoniae) was 2 µg/mL (≈ 1.74 µM). The “MIC K. pneumoniae ATCC 13882” value (Klebsiella pneumoniae) was 0.5 µg/mL (≈ 0.434 µM), the “MIC A. baumanii ATCC BAA-747” value (Acinetobacter baumannii) was 0.25 µg/mL (≈ 0.217 µM) and the “MIC A. baumanii NCTC 13424” value (Acinetobacter baumannii) was 0.25 µg/mL (≈ 0.217 µM). The “MIC E. coli 058” value (Escherichia coli) was 2 µg/mL (≈ 1.74 µM) and the “MIC E. coli ATCC 25922” value (Escherichia coli) was 0.5 µg/mL (≈ 0.434 µM).
In the case of `CC(C)C[C@@H]1NC(=O)[C@@H](CC2CCCCC2)NC(=O)[C@H](CCN)NC(=O)[C@@H](NC(=O)[C@H](CN)NC(=O)[C@@H](NC(=O)[C@H](CN)OCc2ccc(Cl)cc2)[C@@H](C)O)CCNC(=O)[C@H]([C@@H](C)O)NC(=O)[C@H](CCN)NC(=O)[C@H](CCN)NC1=O` [Example 81, (S)-3-amino-2-((4-chlorobenzyl)oxy) propanoyl L-Thr-L-Dap-polymyxin [D-cyclohexylalanine-6]heptapeptide] (X10-T[Dap][Dab][Dab][dCha]L[Dab][Dab]T; lactam 3-C), the “MIC P. aeruginosa 068” value (Pseudomonas aeruginosa) is reported as 2 µg/mL (≈ 1.71 µM), the “MIC P. aeruginosa 070” value (Pseudomonas aeruginosa) is reported as 2 µg/mL (≈ 1.71 µM) and the “MIC P. aeruginosa ATCC 27853” value (Pseudomonas aeruginosa) is reported as 0.125 µg/mL (≈ 0.107 µM). For the same molecule, the “MIC P. aeruginosa CCUG 59347” value (Pseudomonas aeruginosa) was 0.25 µg/mL (≈ 0.214 µM), the “MIC K. pneumoniae 063” value (Klebsiella pneumoniae) was 16 µg/mL (≈ 13.7 µM) and the “MIC K. pneumoniae 065” value (Klebsiella pneumoniae) was 4 µg/mL (≈ 3.43 µM). The “MIC K. pneumoniae ATCC 4352” value (Klebsiella pneumoniae) was 0.25 µg/mL (≈ 0.214 µM), the “MIC K. pneumoniae ATCC 13882” value (Klebsiella pneumoniae) was 0.125 µg/mL (≈ 0.107 µM) and the “MIC A. baumanii 053” value (Acinetobacter baumannii) was 32 µg/mL (≈ 27.4 µM). For the same molecule, the “MIC A. baumanii 056” value (Acinetobacter baumannii) was 8 µg/mL (≈ 6.86 µM), the “MIC A. baumanii ATCC BAA-747” value (Acinetobacter baumannii) was 0.125 µg/mL (≈ 0.107 µM) and the “MIC A. baumanii NCTC 13424” value (Acinetobacter baumannii) was 0.125 µg/mL (≈ 0.107 µM). The “MIC E. coli 058” value (Escherichia coli) was 1 µg/mL (≈ 0.857 µM), the “MIC E. coli 061” value (Escherichia coli) was 16 µg/mL (≈ 13.7 µM) and the “MIC E. coli ATCC 25922” value (Escherichia coli) was 0.125 µg/mL (≈ 0.107 µM). The “MIC E. coli NCTC 9001” value (Escherichia coli) was 0.03 µg/mL (≈ 0.0257 µM).
